Assay results: patent US20110319339A1, “NEUROTENSIN-DERIVED BRANCHED PEPTIDES AND USES THEREOF” (priority 2008, published 2011)

How the values were obtained:
PC-3 = experiment: Cytotoxicity of drug-conjugated NT4, MTT growth inhibition; format: cell-based, human
Procedure: (§1) Cells were grown without changing the medium for days. Growth inhibition was assessed by 3-(4,5-dimethylthiazol-2-yl)-2,5-diphenyltetrazolium bromide. EC50 values were calculated by non-linear regression analysis using GraphPaD prism 3.02 software.

HT29 tumors = experiment: Tumor growth reduction in mice; format: in vivo, CD-1 female nude mice; details: given six times, dose of 3 μg/kg, time-frame of 10 days
Procedure: In details, CD-1 female nude mice (Charles River Laboratories, Inc.), 5 to 6 weeks of age (mean weight, 20 g), were injected s.c. in the right flank with 1×10^6 HT29 cells. When tumors reached a diameter of 3 to 4 mm (5 days after tumor inoculation) mice were randomly divided into groups (four mice per group) and repeatedly injected in the tail vein (0, 30, 70, 140, 190, 240 hours post first injection) with 500 μL of the following solutions in 0.9% NaCl: (a) 1 mg/mL NT(1-13)4-5FdU (3.05 μmol/kg); (b) 30 μg/mL 5FdU (3.05 μmol/kg); and (c) 0.9% NaCl.
Tumor volumes were measured daily with a caliper using the following formula: volume=length*width2*π/6. 21 days after tumor inoculation, ie 6 days after the last treatment, mice were sacrificed, tumors, removed and weighted. […] Statistical analysis was done using Student's t test (p<0.05).

[1] = tested on: colon tumors and healthy tissues from the same patient; experiment: Binding of fluorophore-conjugated NT4 to human tumor surgical samples versus healthy tissue, confocal fluorescence; details: any tissue sample (colon and pancreas)
Procedure: Each step was followed by washing with TBS. […] Each step was followed by washing with TBS. […] Analogue monomeric peptides were assayed for comparison. […] All images were processed using the ImageJ software (NIH).

[2] = Classification of functionalized branched peptides as fast or slow/non releasing; details: ability to release the functional unit from the carrier peptide
HT-29 = experiment: Cytotoxicity of drug-conjugated NT4, MTT growth inhibition; format: cell-based, human; details: HT29, best EC50 values, 0.15 to 30 μmol/L
Procedure: as §1

[3] = tested on: HT-29, PANC-1 and PC-3 tumor cell lines; experiment: Cytotoxicity of drug-conjugated NT4, statements on the three cell lines together; format: cell-based, human
Procedure: Cells were grown without changing the medium for days.
5-FdU, Monastrol and CBTST were fast released from the adducts. […] The additional washing was performed in order to avoid free drug to diffuse inside the cells during the following six days.

[4] = compared to NT

O=c1[nH]c(=O)n([C@H]2C[C@H](O)[C@@H](CO)O2)cc1F [5-FdU, 5-fluoro-2′-deoxyuridine]
sensitivity of PC-3 cells to the drug (PC-3): not affected
inhibition of tumor growth (HT29 tumors): 10%

O=C(O)CCCc1ccc(N(CCCl)CCCl)cc1 [CLB, chlorarnbucil]
sensitivity of PC-3 cells to the drug (PC-3): not affected

CN(Cc1cnc2nc(N)nc(N)c2n1)c1ccc(C(=O)N[C@@H](CCC(=O)O)C(=O)O)cc1 [MTX, methotrexate]
sensitivity of PC-3 cells to the drug (PC-3): not affected

NT4-peg-Biotin
IC50 values (NT receptor; compared to that of NT4): comparable

NT(1-13)4
binding to tissue sample compared to NT(8-13)4 [1]: identical

NT(8-13)4-beta-Ala-Biotin
binding activity to NT receptor (NT receptor; compared to NT(8-13)4): loose binding activity

NT(8-13)4-betaAla-K(PEG-Chlorambucil) [NT4(8-13)-CLB]
releasing class of the adduct [2]: slow releasing
EC50 (HT-29): 1900 nM

NT(8-13)-betaAla-K(PEG-5-fluorodeoxyuridine) [NT4(8-13)-5-FdU]
EC50 (HT-29): 330 nM

NT(8-13)-betaAla-K(PEG-6-mercaptopurine) [NT4(8-13)-6-MP]
activity compared to the parent free drug [3]: no improvement

NT(8-13)-betaAla-K(PEG-Monastrol) [NT4(8-13)-Mon]
activity compared to the parent free drug [3]: no improvement

NT(8-13)-betaAla-K(PEG-Tirapazamine) [NT4(8-13)-TPZ]
releasing class of the adduct [2]: slow releasing
EC50 (PC-3; PC3, best EC50 values, 0.15 to 30 μmol/L, MTT): 140 nM

QHWSYGLRPG [LHRH]
in vitro binding profiles [4]: lower
